Measured values published in the NIST ThermoML archive (doi:10.1016/j.fluid.2008.02.021).

Assays:
[1] = excess molar enthalpy (molar enthalpy of mixing); xn = mol fraction of the nth substance listed; settings: Liquid, Flow calorimetry
[2] = for vapor or sublimation pressure: Liquid, Closed cell (Static) method; for Normal melting temperature: Crystal

OC1CCCCC1 [cyclohexanol] + O=C1CCCCC1
[1]
Settings | excess molar enthalpy [kcal/mol]
363.15 K, 1651 kPa, x2 = 0.051 | 0.065
363.15 K, 1651 kPa, x2 = 0.102 | 0.124
363.15 K, 1651 kPa, x2 = 0.153 | 0.175
363.15 K, 1651 kPa, x2 = 0.204 | 0.22
363.15 K, 1651 kPa, x2 = 0.254 | 0.255
363.15 K, 1651 kPa, x2 = 0.305 | 0.285
363.15 K, 1651 kPa, x2 = 0.355 | 0.307
363.15 K, 1651 kPa, x2 = 0.406 | 0.321
363.15 K, 1651 kPa, x2 = 0.456 | 0.33
363.15 K, 1651 kPa, x2 = 0.506 | 0.334
363.15 K, 1651 kPa, x2 = 0.555 | 0.328
363.15 K, 1651 kPa, x2 = 0.605 | 0.316
363.15 K, 1651 kPa, x2 = 0.655 | 0.299
363.15 K, 1651 kPa, x2 = 0.705 | 0.275
363.15 K, 1651 kPa, x2 = 0.754 | 0.244
363.15 K, 1651 kPa, x2 = 0.803 | 0.208
363.15 K, 1651 kPa, x2 = 0.853 | 0.164
363.15 K, 1651 kPa, x2 = 0.902 | 0.115
363.15 K, 1651 kPa, x2 = 0.951 | 0.0595
413.15 K, 1582 kPa, x2 = 0.051 | 0.0388
413.15 K, 1582 kPa, x2 = 0.102 | 0.0744
413.15 K, 1582 kPa, x2 = 0.153 | 0.106
413.15 K, 1582 kPa, x2 = 0.203 | 0.134
413.15 K, 1582 kPa, x2 = 0.254 | 0.157
413.15 K, 1582 kPa, x2 = 0.304 | 0.175
413.15 K, 1582 kPa, x2 = 0.355 | 0.19
413.15 K, 1582 kPa, x2 = 0.405 | 0.199
413.15 K, 1582 kPa, x2 = 0.455 | 0.204
413.15 K, 1582 kPa, x2 = 0.505 | 0.206
413.15 K, 1582 kPa, x2 = 0.555 | 0.202
413.15 K, 1582 kPa, x2 = 0.605 | 0.195
413.15 K, 1582 kPa, x2 = 0.655 | 0.183
413.15 K, 1582 kPa, x2 = 0.704 | 0.168
413.15 K, 1582 kPa, x2 = 0.754 | 0.148
413.15 K, 1582 kPa, x2 = 0.803 | 0.126
413.15 K, 1582 kPa, x2 = 0.853 | 0.0985
413.15 K, 1582 kPa, x2 = 0.902 | 0.0681
413.15 K, 1582 kPa, x2 = 0.951 | 0.035

OC1CCCCC1 [cyclohexanol]
[2]
Settings | Normal melting temperature [°C] | vapor or sublimation pressure [kPa]
323.15 K | – | 0.7399
363.15 K | – | 6.882
visual observation | 24.1 | –

CCCCCCC(C)=O [2-octanone] + CCCCCCO
excess molar enthalpy [kcal/mol], [1], 1617 kPa
Settings | 363.15 K | 413.15 K
x2 = 0.062 | 0.0819 | 0.059
x2 = 0.122 | 0.152 | 0.112
x2 = 0.181 | 0.21 | 0.157
x2 = 0.238 | 0.257 | 0.194
x2 = 0.294 | 0.292 | 0.222
x2 = 0.349 | 0.319 | 0.244
x2 = 0.402 | 0.335 | 0.259
x2 = 0.455 | 0.344 | 0.268
x2 = 0.506 | 0.345 | 0.271
x2 = 0.556 | – | 0.269
x2 = 0.557 | 0.341 | –
x2 = 0.605 | 0.327 | 0.26
x2 = 0.652 | 0.31 | 0.247
x2 = 0.699 | 0.287 | 0.229
x2 = 0.745 | 0.259 | 0.206
x2 = 0.79 | 0.227 | 0.181
x2 = 0.833 | 0.19 | 0.152
x2 = 0.876 | 0.148 | 0.12
x2 = 0.918 | 0.102 | 0.0838
x2 = 0.96 | 0.0525 | 0.0429

CCCCCCC(C)=O [2-octanone]
[2]
Settings | vapor or sublimation pressure [kPa]
323.15 K | 0.8706
363.15 K | 6.397

Settings | Normal melting temperature [°C]
[2] | -19.7

CCCCCCO [hexan-1-ol]
[2]
Settings | vapor or sublimation pressure [kPa]
323.15 K | 0.7226
363.15 K | 7.229

Settings | Normal melting temperature [°C]
[2] | -44

O=C1CCCCC1 [cyclohexanone]
[2]
Settings | Normal melting temperature [°C] | vapor or sublimation pressure [kPa]
323.15 K | – | 2.23
363.15 K | – | 13.05
visual observation | -27.2 | –
